Laboratory results reported in patent US7053100B2, “Therapeutic nucleosides” (priority 1991, dated 2006).
“And” between values parts separate entries of the source, which are not always exact repeats. Equal values may be shown once.

Tested on: Hepatitis B Virus (HBV) in human HBV producer cell line of HepG2, 2.2.15
Settings: 100 μM compound, 2.2.15 cells
Experimental: Antiviral Activity Against Hepatitis B Virus (HBV)
The human HBV producer cell line of HepG2, 2.2.15, described and characterized by Sells et al., PNAS 84:1005, 1987 and J. Virol. […] This cell line was utilized in vitro to identify compounds with anti-HBV activity.
Supernatant media containing extracellular virion DNA (Dane particles) were harvested on days three, six and ten, treated with proteinase K (1 mg/mL) and sodium dodecyl sulfate (1%), and incubated at 50° C. for one hour. DNA was extracted with equal volumes of phenol followed by chloroform and then precipitated by ammonium acetate and propanol. The DNA precipitate was dissolved and collected on nitrocellulose using the procedure of Schleicher and Schuell (S & S, 10 Optical Ave., Keene, N.H. 03431, Publication No. 700, 1987), and treated as described by Southern, J. Mol. Biol. 98:503, 1975. Cells were harvested, and the intracellular DNA was obtained after cell lysis with guanidine isothiocyanate. The intracellular DNA was handled in the same manner as the extracellular DNA. After precipitation by ammonium acetate and propanol, the intracellular DNA precipitate was dissolved, cut by restriction endonuclease, Hind III, applied to agarose gel and then treated as described by Southern to determine the quantity of replicative intermediate forms.

[1] = analysis 24 hours following the 10th day of treatment, duplicate cultures, experiments A and B

Compound: Nc1nc(=O)n([C@@H]2CS[C@H](CO)O2)cc1F (racemic) [cis-1-(2-(Hydroxymethyl)-1,3-oxathiolan-5-yl)-5-fluoro-cytosine]
- HBV DNA in Culture Medium, Day 0 (Day 0, zero = undetectable, sensitivity cutoff 0.1 pg/mL): 90 pg/mL
- HBV DNA in Culture Medium, Day 10 (Day 10, zero = undetectable, sensitivity cutoff 0.1 pg/mL): 0 pg/mL
- Intracellular HBV DNA, Monomer [1]: 0.8 pg/μg cell DNA and 0.7 pg/μg cell DNA
- Intracellular HBV DNA, Replicative intermediate [1]: 1 pg/μg cell DNA and 2 pg/μg cell DNA
